PubChem BioAssay (NCI)
Values joined by “and” are separate entries in the source; they are usually repeats but may differ in a detail not shown here. Identical values can stand only once.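 Briefly, cells in 96-well plates were exposed to five compound concentrations for 48 h, and endpoints were estimated by linear interpolation. Abbreviation: GI50, concentration required for 50% inhibition of growth. The concentration for full growth arrest is given as TGI.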

Assays:
Assay in all cases: NCI-60 cell line screen, 48 h
SN12C renal = system: SN12C renal
SF-268 CNS = system: SF-268 CNS
NCI-H522 lung = system: NCI-H522 lung
A498 renal = system: A498 renal
OVCAR-8 ovarian = system: OVCAR-8 ovarian
T-47D breast = system: T-47D breast
SK-MEL-2 melanoma = system: SK-MEL-2 melanoma
HCC-2998 colon = system: HCC-2998 colon
HOP-18 NSCLC = system: HOP-18 NSCLC

Compound | GI50 (SN12C renal) | TGI (SN12C renal) | GI50 (SF-268 CNS) | TGI (SF-268 CNS) | GI50 (NCI-H522 lung) | TGI (NCI-H522 lung) | GI50 (A498 renal) | TGI (A498 renal) | GI50 (OVCAR-8 ovarian) | TGI (OVCAR-8 ovarian) | GI50 (T-47D breast) | TGI (T-47D breast) | GI50 (SK-MEL-2 melanoma) | TGI (SK-MEL-2 melanoma) | GI50 (HCC-2998 colon) | TGI (HCC-2998 colon) | TGI (HOP-18 NSCLC)
CC[C@@]1(O)C(=O)NCc2c1cc1n(c2=O)Cc2cc3c(NC(C)=O)cccc3nc2-1 | > 100 µM | > 100 µM | > 100 µM | > 100 µM | > 100 µM | > 100 µM | > 100 µM | > 100 µM | > 100 µM | > 100 µM | > 100 µM | > 100 µM | > 100 µM | > 100 µM | > 100 µM | > 100 µM | –
O=C1CC[C@@H](NC(=O)Cc2ccccc2)C(=O)N1 | – | > 100 µM | – | > 100 µM | – | > 100 µM | – | > 100 µM | – | > 100 µM | – | – | – | > 100 µM | – | > 100 µM | > 100 µM
COc1cc(NC(C)CCCN2C(=O)c3ccccc3C2=O)c2ncccc2c1OC (stereo unspecified) | 66.9 µM | > 100 µM | 55.7 µM | > 100 µM | 35.4 µM | > 100 µM | 34.4 µM | > 100 µM | 34.9 µM | > 100 µM | 35.7 µM | > 100 µM | 29 µM | > 100 µM | 33.1 µM | > 100 µM | –
COc1cc(/C=C/c2ccccn2)cc(OC)c1OC | – | > 10 µM | – | > 10 µM | – | > 10 µM | – | > 10 µM | – | > 10 µM | – | > 10 µM | – | > 10 µM | – | > 10 µM | –
Cc1cn2c(/C=C3/C(=O)Nc4ccc(Cl)cc43)c(C)nc2s1 | – | 65 µM | 12.5 µM | > 100 µM | 1.01 µM | > 100 µM | 0.1 µM | 0.645 µM | 2.75 µM | 32.7 µM | 4.09 µM | > 75 µM | 21.4 µM | > 100 µM | < 0.024 µM | 1.04 µM | –
Fc1ccc(-c2c(-c3ccncc3)[nH]c3nccnc23)cc1 | 7.84 µM | > 25 µM | 10.9 µM | > 25 µM | > 11.1 µM | > 21.6 µM | 4.76 µM | > 23.2 µM | 10.4 µM | > 25 µM | 7.09 µM | > 25 µM | 13.6 µM | > 25 µM | 12 µM | > 25 µM | –
CS(=O)(=O)N1CCc2c(-c3cnc(N)nc3)nc(N3CCOCC3)nc21 | 0.648 µM and 0.667 µM | > 100 µM | 0.821 µM and 1.05 µM | > 51.6 µM | 0.642 µM and 2.1 µM | > 48.7 µM | 0.203 µM and 0.101 µM | 0.836 µM and 0.447 µM | 1.65 µM and 0.984 µM | > 10 µM and 14 µM | 0.041 µM and 0.0468 µM | 0.399 µM and 0.463 µM | 1.28 µM and 1.77 µM | 8.66 µM and 14 µM | 0.923 µM and 0.794 µM | > 73.5 µM | –
COc1ccc(-c2nc3sccn3c2-c2ccnc(NCCCNS(=O)(=O)c3ccc(F)cc3)n2)cc1 | 2.74 µM | > 100 µM | 3.05 µM | 48.3 µM | 1.41 µM | 6.34 µM | 2.6 µM | > 100 µM | 1.57 µM | > 100 µM | 0.866 µM | 4.87 µM | 2.32 µM | 6.75 µM | 5.11 µM | 57.2 µM | –
COC(=O)C1(C)CCCC2(C)c3cc(OC)ccc3C(=O)C(Br)C12 (stereo unspecified) | – | > 10 µM | – | > 10 µM | – | 5.25 µM | – | > 10 µM | – | 4.54 µM | – | > 10 µM | – | > 10 µM | – | > 10 µM | –
O=C(/C=C/c1ccccc1)OCC1=C[C@@H](O)[C@@H]2C=CO[C@@H](OC3OC(CO)C(O)C(O)C3O)[C@H]12 (stereo partly specified) | – | > 100 µM | – | > 100 µM | – | > 100 µM | – | > 100 µM | – | > 100 µM | – | > 100 µM | – | > 100 µM | – | > 100 µM | –
COc1cc(-c2nn(-c3cccc(NC(=O)CCN4CCN(C)CC4)c3)cc2-c2ccncc2)ccc1Cl | 2.05 µM | 8.45 µM | 1.43 µM | 3.53 µM | 0.283 µM | 1.08 µM | 0.412 µM | 3.23 µM | 2.77 µM | 12 µM | 2.34 µM | 10.1 µM | 0.889 µM | 2.55 µM | 1.86 µM | 3.79 µM | –
CC(C)[C@H](C(=O)O[C@@H]1/C=C/C(=O)O[C@@H](C)CCC/C=C/[C@@H]2C[C@H](O)C[C@H]21)N(C)C | 26.7 µM | > 68.7 µM | 5.25 µM | 41.9 µM | 26.5 µM | > 68.8 µM | 2.08 µM | 6.62 µM | 13.2 µM | > 68.9 µM | 31 µM | > 100 µM | 17 µM | > 63.2 µM | 12.9 µM | 62.2 µM | –
Cc1cc(C#Cc2ccccc2)ccc1-n1c(/C=C/c2cc(O)ccc2O)nc2ccccc2c1=O | 1.62 µM | 3.01 µM | 1.31 µM | 3.07 µM | 1.29 µM | 2.56 µM | 0.37 µM | 2.63 µM | 1.94 µM | 5.4 µM | 1.14 µM | 3.67 µM | 1.4 µM | 3.05 µM | 1.36 µM | 2.64 µM | –
COc1cccc(/C=C\c2ccnc3ccccc23)c1 | – | > 10 µM | – | > 10 µM | – | > 10 µM | – | > 10 µM | – | > 10 µM | – | > 10 µM | – | > 10 µM | – | > 10 µM | –
N[C@@H](CSSC[C@H](N)C(=O)N1CCn2cc(-c3ccccc3)nc2[C@@H]1CC1CCCCC1)C(=O)N1CCn2cc(-c3ccccc3)nc2[C@@H]1CC1CCCCC1 | 1.62 µM | 3.56 µM | 0.344 µM | 2.46 µM | 1.68 µM | 3.39 µM | 2.68 µM | 5.39 µM | 1.87 µM | 5.76 µM | 0.543 µM | 2.02 µM | 0.837 µM | 2.28 µM | 1.66 µM | 3.17 µM | –
O=C1/C(=C/c2ccccc2[N+](=O)[O-])COc2ccc(O)c(O)c21 | 0.679 µM | 6.05 µM | 1.18 µM | 4.58 µM | 0.208 µM | 0.509 µM | 2.11 µM | 5.07 µM | 0.525 µM | 18.6 µM | 0.918 µM | 4.72 µM | 2.18 µM | 5.99 µM | 1.56 µM | 3.16 µM | –
Cn1cc(C2=C(c3c(S(C)=O)n(C)c4ccccc34)C(=O)NC2=O)c2ccccc21 (stereo unspecified) | 14 µM | > 25 µM | 11.7 µM | > 25 µM | 4.47 µM | > 23.4 µM | 4.03 µM | > 20.5 µM | 12.3 µM | > 25 µM | 8.35 µM | > 25 µM | 7.88 µM | > 25 µM | 18.9 µM | > 25 µM | –
